Results reported in patent publication US20240246940A1, “HETEROARYL DERIVATIVE COMPOUND AND USE THEREOF” (VORONOI INC., priority 2021, published 2024).

Experiments:
Assay type in all cases: cell-based
Details in all cases: Homo sapiens
[1] = tested on: BT-474 cells (HER2 overexpressing cell line); experiment: BT-474 cell proliferation inhibitory activity (CellTiter-Glo, 120 hours)
Protocol: To evaluate the cell proliferation inhibitory activity of the compound according to the present invention on HER2 and EGFR kinases, the following method was performed using HER2 overexpressing cell lines (SK-BR-3, BT-474, and N-87) and EGFR expressing cell line (HaCaT).
McCOY'S 5A supplemented with 10% FBS was used for SK-BR-3 cells, RPMI-1640 medium supplemented with 20% FBS was used for BT-474 cancer cells, and RPMI-1640 medium supplemented with 10% FBS was used for N-87 cancer cells. DMEM supplemented with 10% FBS was used for HaCaT cells.
For SK-BR-3 cells, 5000 cells were aliquoted into each well of a white clear bottom 96 well plate (Corning) 48 hours before treatment with the compounds of Examples. For BT-474 cells, 5000 cells were aliquoted into each well of a white clear bottom 96 well plate (Corning) 48 hours before treatment with the compounds of Examples. For N-87 cells, 5000 cells were aliquoted into each well of a white clear bottom 96 well plate (Corning) 24 hours before treatment with the compounds of Examples. For HaCaT cells, 3000 cells were aliquoted into each well of a white clear bottom 96 well plate (Corning) 24 hours before treatment with the compounds of Examples. For SK-BR-3 cells and BT-474 cells, the compounds of Examples were diluted in dimethyl sulfoxide (three-fold dilution, a total of 11 concentrations) and injected each in an amount of 1 μl to a final concentration of 0.2 nM to 10 μM. For N-87 cells, the compounds of Examples were diluted in dimethyl sulfoxide (five-fold dilution, a total of 11 concentrations) and injected each in an amount of 0.5 μl to a final concentration of […] to 5 μM. For HaCaT cells, the compounds of Examples were diluted in dimethyl sulfoxide (three-fold dilution, a total of 11 concentrations) and injected each in an amount of 0.5 μl to a final concentration of 0.8 nM to 45 μM. For the measurement of living cells, the cells were stored at room temperature for 10 minutes using CellTiter-Glo cell viability reagent (Promega) after a certain period of time (SK-BR-3: 120 hours, BT-474: 120 hours, N-87: 72 hours, and HaCaT: 72 hours) post treatment with the compounds of Examples, and the luminescence intensity thereof was measured using a reader (SynergyNeo, Biotek). Each test was repeated three times.
The result values were calculated as a cell growth rate (%) compared to those of the control group. A graph was created using the GraphPad Prism version 5.0 program, and GI50 values were calculated.

[2] = tested on: HaCaT cells (EGFR expressing cell line); experiment: HaCaT cell proliferation inhibitory activity (CellTiter-Glo, 72 hours)
In short: (§1)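 Plate cells (HaCaT 3000/well, others 5000/well), then allow 24 h or 48 h before dosing, with the longer wait for SK-BR-3 and BT-474. Add compounds as 3-fold series, or 5-fold for N-87, at 11 concentrations each. Read viability luminescence, compute growth % against control and derive GI50.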

[3] = tested on: SK-BR-3 cells (HER2 overexpressing cell line); experiment: SK-BR-3 cell proliferation inhibitory activity (CellTiter-Glo, 120 hours)
In short: as §1

In the case of `C=CC(=O)N1CCC(Oc2cc3c(Nc4cc(-c5ccc(F)c(OC)c5F)ccc4OC)ncnc3cc2OC)CC1` [Example 210, 1-(4-((4-((2′,4′-difluoro-3′,4-dimethoxy-[1,1′-biphenyl]-3-yl)amino)-7-methoxy-quinazolin-6-yl)oxy)piperidin-1-yl)prop-2-en-1-one], the GI50 [1] is reported as at most 150 nM and the GI50 [2] is reported as 150 to 1000 nM.

Work on `COc1cc2ncnc(Nc3cc(-c4ccc(F)cc4F)ccc3OC)c2cc1NC(=O)/C=C/CN1CCOCC1` [Example 316, (E)-N-(4-((2′,4′-difluoro-4-methoxy-[1,1′-biphenyl]-3-yl)amino)-7-methoxyquinazolin-6-yl)-4-morpholinobut-2-enamide] yielded a GI50 [1] of at most 150 nM and a GI50 [2] of at most 150 nM.

`C=CC(=O)N1CCC2(CC1)CN(c1cc3c(Nc4cc(-c5ccc(F)cc5F)ccc4OC)ncnc3cc1OC)C2` [Example 325, 1-(2-(4-((2′,4′-difluoro-4-methoxy-[1,1′-biphenyl]-3-yl)amino)-7-methoxyquinazolin-6-yl)-2,7-diazaspiro[3.5]nonan-7-yl)prop-2-en-1-one] was tested, and the GI50 [1] was 150 to 1000 nM and the GI50 [2] was 150 to 1000 nM.

Compound `COc1ccc(-c2ccc(F)cc2F)cc1Nc1ncnc2cc(OC)c(OC3CCN(C(=O)C(F)Cl)CC3)cc12` (stereo not shown) [Example 187, 2-chloro-1-(4-((4-((2′,4′-difluoro-4-methoxy-[1,1′-biphenyl]-3-yl)amino)-7-methoxy-quinazolin-6-yl)oxy)piperidin-1-yl)-2-fluoroethan-1-one] has a GI50 [1] of 150 to 1000 nM and a GI50 [2] of at most 150 nM.

Work on `COc1cc2ncnc(Nc3cc(-c4ccc(F)cc4F)ccc3OC)c2cc1NC(=O)/C=C/CN1C2COCC1C2` [Example 319] yielded a GI50 [1] of at most 150 nM and a GI50 [2] of at most 150 nM.

`COc1cc2ncnc(Nc3cc(-c4ccco4)ccc3OC)c2cc1NC(=O)/C=C/CN1CCOCC1` [Example 315, (E)-N-(4-((5-(furan-2-yl)-2-methoxyphenyl)amino)-7-methoxyquinazolin-6-yl)-4-morpholinobut-2-enamide] was tested, and the GI50 [1] was at most 150 nM and the GI50 [2] was at most 150 nM.

`C=CC(=O)N1CCC(Oc2cc3c(Nc4cc(-c5ccc(F)cc5F)ccc4OC)ncnc3cc2OCC)CC1` [Example 239, 1-(4-((4-((2′,4′-difluoro-4-methoxy-[1,1′-biphenyl]-3-yl)amino)-7-ethoxyquinazolin-6-yl)oxy)piperidin-1-yl)prop-2-en-1-one] gave a GI50 [1] of at most 150 nM and a GI50 [2] of at most 150 nM.

`C=CC(=O)N1CCC(Oc2cc3c(Nc4cc(-c5ccc(F)c(C(F)(F)F)c5F)ccc4OC)ncnc3cc2OC)CC1` [Example 202, 1-(4-((4-((2′,4′-difluoro-4-methoxy-3-(trifluoro-methyl)′-[1,1′-biphenyl]-3-yl)amino)-7-methoxy-quinazolin-6-yl)oxy)piperidin-1-yl)prop-2-en-1-one] showed a GI50 [1] of at most 150 nM and a GI50 [2] of over 1000 nM.

Compound `C=CC(=O)N1CC2(C1)CN(c1cc3c(Nc4cc(-c5ccco5)ccc4OC)ncnc3cc1OC)C2` [Example 326, 1-(6-(4-((5-(furan-2-yl)-2-methoxyphenyl)amino)-7-methoxyquinazolin-6-yl)-2,6-diazaspiro[3.3]heptan-2-yl)prop-2-en-1-one] has a GI50 [1] of over 1000 nM and a GI50 [2] of 150 to 1000 nM.

`C=CC(=O)N1CCC(Oc2cc3c(Nc4cc(-c5c(F)c(F)c(F)c(F)c5F)ccc4OC)ncnc3cc2OC)CC1` [Example 198] was tested, and the GI50 [1] was 150 to 1000 nM and the GI50 [2] was over 1000 nM.

`C=CC(=O)N1CCC(Nc2cc3c(Nc4cc(-c5ccc(F)cc5F)ccc4OC)ncnc3cc2OC(F)F)CC1` [Example 297, 1-(4-((4-((2′,4′-difluoro-4-methoxy-[1,1′-biphenyl]-3-yl)amino)-7-(difluoromethoxy)quinazolin-6-yl)amino)piperidin-1-yl)prop-2-en-1-one] gave a GI50 [1] of at most 150 nM and a GI50 [2] of at most 150 nM.

Work on `C=CC(=O)N1[C@@H]2CC[C@H]1C[C@H](Oc1cc3c(Nc4cc(-c5ccco5)ccc4OC)ncnc3cc1OC)C2` [Example 172, 1-((1R,3s,5S)-3-((4-((5-(furan-2-yl)-2-methoxyphenyl)amino)-7-methoxy-quinazolin-6-yl)oxy)-8-azabicyclo [3.2.1]octan-8-yl)prop-2-en-1-one] yielded a GI50 [1] of at most 150 nM and a GI50 [2] of at most 150 nM.

Work on `C=CC(=O)N1CCC2(CC(Oc3cc4c(Nc5cc(-c6ccco6)ccc5OC)ncnc4cc3OC)C2)C1` (stereo not shown) [Example 220, 1-(2-((4-((5-(furan-2-yl)-2-methoxyphenyl)amino)-7-methoxy-quinazolin-6-yl)oxy)-6-azaspiro[3.4]octan-6-yl)prop-2-en-1-one] yielded a GI50 [1] of 150 to 1000 nM and a GI50 [2] of 150 to 1000 nM.

`COc1ccc(-c2ccc(F)cc2F)cc1Nc1ncnc2ccc(NC(=O)/C=C/CN(C)C)c(Cl)c12` [Example 320, (E)-N-(5-chloro-4-((2′,4′-difluoro-4-methoxy-[1,1′-biphenyl]-3-yl)amino)quinazolin-6-yl)-4-(dimethylamino)but-2-enamide] was tested, and the GI50 [1] was 150 to 1000 nM and the GI50 [2] was 150 to 1000 nM.

Work on `C=CC(=O)N1CC2(CCC(Oc3cc4c(Nc5cc(-c6ccco6)ccc5OC)ncnc4cc3OC)C2)C1` (stereo not shown) [Example 221, 1-(6-((4-((5-(furan-2-yl)-2-methoxyphenyl)amino)-7-methoxy-quinazolin-6-yl)oxy)-2-azaspiro[3.4]octan-2-yl)prop-2-en-1-one] yielded a GI50 [1] of over 1000 nM and a GI50 [2] of 150 to 1000 nM.

`C=CC(=O)N1CCC(Oc2cc3c(Nc4c(OC)ccc(-c5ccco5)c4F)ncnc3cc2OC)CC1` [Example 185, 1-(4-((4-((2-fluoro-3-(furan-2-yl)-6-methoxyphenyl)amino)-7-methoxy-quinazolin-6-yl)oxy)piperidin-1-yl)prop-2-en-1-one] was tested, and the GI50 [1] was at most 150 nM and the GI50 [2] was at most 150 nM.

In the case of `C=CC(=O)N1CCC(Oc2cc3c(Nc4cc(C5=CCOCC5)ccc4OC)ncnc3cc2OC)CC1` [Example 216, 1-(4-((4-((5-(3,6-dihydro-2H-pyran-4-yl)-2-methoxyphenyl)amino)-7-methoxy-quinazolin-6-yl)oxy)piperidin-1-yl)prop-2-en-1-one], the GI50 [1] is reported as 150 to 1000 nM and the GI50 [2] is reported as 150 to 1000 nM.

In the case of `C=CC(=O)N1CCC(Nc2cc3c(Nc4cc(-c5ccc(F)cc5F)ccc4OC)ncnc3cc2OCCCN2CCOCC2)CC1` [Example 269, 1-(4-((4-((2′,4′-difluoro-4-methoxy-[1,1′-biphenyl]-3-yl)amino)-7-(3-morpholinopropoxy)quinazolin-6-yl)amino)piperidin-1-yl)prop-2-en-1-one], the GI50 [3] is reported as at most 150 nM and the GI50 [2] is reported as at most 150 nM.

With `C=CC(=O)N1CCC(Oc2cc3c(Nc4cc(-c5ccc(F)nc5)ccc4OC)ncnc3cc2OC)CC1` [Example 133, 1-(4-((4-((5-(6-fluoropyridin-3-yl)-2-methoxyphenyl)amino)-7-methoxy-quinazolin-6-yl)oxy)piperidin-1-yl)prop-2-en-1-one] the GI50 [3] was 150 to 1000 nM and the GI50 [2] was 150 to 1000 nM.

In the case of `C=CC(=O)Nc1cc2c(Nc3cc(-c4ccco4)ccc3OC)ncnc2cc1OC` [Example 289, N-(4-((5-(furan-2-yl)-2-methoxyphenyl)amino)-7-methoxyquinazolin-6-yl)acrylamide], the GI50 [3] is reported as at most 150 nM and the GI50 [2] is reported as at most 150 nM.

`C=CC(=O)N1CCC(Oc2cc3c(Nc4cc(-c5ccco5)ccc4OC)ncnc3cc2OC)C(C)C1` (stereo not shown) [Example 148, 1-(4-((4-((5-(furan-2-yl)-2-methoxyphenyl)amino)-7-methoxy-quinazolin-6-yl)oxy)-3-methylpiperidin-1-yl)prop-2-en-1-one] was tested, and the GI50 [3] was at most 150 nM and the GI50 [2] was at most 150 nM.

Work on `C=CC(=O)N1CCC(Oc2cc3c(Nc4cc(-c5ccc(F)cc5F)ccc4OC)ncnc3cc2OC)CC1C(F)(F)F` (stereo not shown) [Example 165, 1-(4-((4-((2′,4′-difluoro-4-methoxy-[1,1′-biphenyl]-3-yl)amino)-7-methoxy-quinazolin-6-yl)oxy)-2-(trifluoromethyl)piperidin-1-yl)prop-2-en-1-one] yielded a GI50 [3] of over 1000 nM and a GI50 [2] of 150 to 1000 nM.

With `C=CC(=O)N1CC(Oc2cc3c(Nc4cc(-c5cccc(NC(=O)C6CC6)c5)ccc4OC)ncnc3cc2OC)C1` [Example 227, N-(3′-((6-((1-acryloylazetidin-3-yl)oxy)-7-methoxy-quinazolin-4-yl)amino)-4′-methoxy-[1,1′-biphenyl]-3-yl)cyclopropan-carboxamide] the GI50 [3] was 150 to 1000 nM and the GI50 [2] was over 1000 nM.
